Measured values as given in PubChem BioAssay (NCI).
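Exposure lasted 48 hours, with cells grown in 96-well plates and compounds tested at five concentrations. Here, GI50 denotes the concentration required for 50% inhibition of growth. TGI denotes the concentration required for complete inhibition of growth.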

Key:
Test in all cases: growth of human tumour cells (NCI), 48 h
UACC-62 melanoma = system: UACC-62 melanoma
NCI-H23 lung = system: NCI-H23 lung
DU-145 prostate = system: DU-145 prostate
HCT-116 colon = system: HCT-116 colon
SK-MEL-28 melanoma = system: SK-MEL-28 melanoma
SNB-75 CNS = system: SNB-75 CNS
TK-10 renal = system: TK-10 renal
CAKI-1 renal = system: CAKI-1 renal
MCF7 breast = system: MCF7 breast
MDA-MB-231 breast = system: MDA-MB-231 breast
RPMI-8226 leukemia = system: RPMI-8226 leukemia
SF-539 CNS = system: SF-539 CNS
U251 CNS = system: U251 CNS
OVCAR-8 ovarian = system: OVCAR-8 ovarian
K-562 leukemia = system: K-562 leukemia
UO-31 renal = system: UO-31 renal
EKVX NSCLC = system: EKVX NSCLC
SK-MEL-5 melanoma = system: SK-MEL-5 melanoma
NCI-H522 lung = system: NCI-H522 lung
SW-620 colon = system: SW-620 colon
OVCAR-5 ovarian = system: OVCAR-5 ovarian
HOP-62 NSCLC = system: HOP-62 NSCLC
SF-268 CNS = system: SF-268 CNS
A498 renal = system: A498 renal
HS 578T breast = system: HS 578T breast
SK-OV-3 ovarian = system: SK-OV-3 ovarian
OVCAR-3 ovarian = system: OVCAR-3 ovarian
OVCAR-4 ovarian = system: OVCAR-4 ovarian
MDA-MB-435 = system: MDA-MB-435
NCI-H460 lung = system: NCI-H460 lung
M14 melanoma = system: M14 melanoma
HCC-2998 colon = system: HCC-2998 colon
SK-MEL-2 melanoma = system: SK-MEL-2 melanoma
HCT-15 colon = system: HCT-15 colon
COLO 205 colon = system: COLO 205 colon
T-47D breast = system: T-47D breast
RXF 393 renal = system: RXF 393 renal
ACHN renal = system: ACHN renal
HL-60(TB) leukemia = system: HL-60(TB) leukemia
CCRF-CEM leukemia = system: CCRF-CEM leukemia
MALME-3M melanoma = system: MALME-3M melanoma
HOP-92 NSCLC = system: HOP-92 NSCLC
IGROV1 ovarian = system: IGROV1 ovarian
NCI-H226 lung = system: NCI-H226 lung
NCI/ADR-RES ovarian = system: NCI/ADR-RES ovarian
UACC-257 melanoma = system: UACC-257 melanoma
A549 NSCLC = system: A549 NSCLC
BT-549 breast = system: BT-549 breast
LOX IMVI melanoma = system: LOX IMVI melanoma
SN12C renal = system: SN12C renal
HT29 colon = system: HT29 colon
KM12 colon = system: KM12 colon
PC-3 prostate = system: PC-3 prostate
SNB-19 CNS = system: SNB-19 CNS
786-0 renal = system: 786-0 renal
SF-295 CNS = system: SF-295 CNS

## CC1SC2(CCC(c3ccccc3)CC2)N(NC(=O)c2[nH]c3ccc(F)cc3c2-c2ccccc2)C1=O (configuration not stated)
UACC-62 melanoma
  GI50: 6.21 µM
  TGI: 27.4 µM
NCI-H23 lung
  GI50: 4.4 µM
  TGI: 19 µM
DU-145 prostate
  GI50: 4.33 µM
  TGI: 17.8 µM
HCT-116 colon
  GI50: 1940 nM
  TGI: 4.56 µM
SK-MEL-28 melanoma
  GI50: 5.34 µM
  TGI: 18.1 µM
SNB-75 CNS
  GI50: 19.4 µM
  TGI: 42.2 µM
TK-10 renal
  GI50: 7.57 µM
  TGI: > 100 µM
CAKI-1 renal
  GI50: 4.38 µM
  TGI: 24.5 µM
MCF7 breast
  GI50: 4.78 µM
  TGI: 24.1 µM
MDA-MB-231 breast
  GI50: 14.8 µM
  TGI: 44 µM
RPMI-8226 leukemia
  GI50: 804 nM
  TGI: 2910 nM
SF-539 CNS
  GI50: 20 µM
  TGI: 49.3 µM
U251 CNS
  GI50: 4.09 µM
  TGI: 24 µM
OVCAR-8 ovarian
  GI50: 2870 nM
  TGI: 19 µM
K-562 leukemia
  GI50: 2110 nM
  TGI: 6.1 µM
UO-31 renal
  GI50: 6.48 µM
  TGI: 33.1 µM
EKVX NSCLC
  GI50: 12.4 µM
  TGI: 54.2 µM
SK-MEL-5 melanoma
  GI50: 3.85 µM
  TGI: 21.6 µM
NCI-H522 lung
  GI50: 7.21 µM
  TGI: 24.6 µM
SW-620 colon
  GI50: 6.57 µM
  TGI: > 100 µM
OVCAR-5 ovarian
  GI50: 18.5 µM
  TGI: 43.8 µM
HOP-62 NSCLC
  GI50: 4.59 µM
  TGI: 23.5 µM
SF-268 CNS
  GI50: 21.2 µM
  TGI: > 100 µM
A498 renal
  GI50: 13 µM
  TGI: 28.2 µM
HS 578T breast
  GI50: 12 µM
  TGI: 68.3 µM
SK-OV-3 ovarian
  GI50: 54.3 µM
  TGI: > 100 µM
OVCAR-3 ovarian
  GI50: 4.33 µM
  TGI: 53.8 µM
OVCAR-4 ovarian
  GI50: 3.87 µM
  TGI: 18.3 µM
MDA-MB-435
  GI50: 6.11 µM
  TGI: 39.3 µM
NCI-H460 lung
  GI50: 4.28 µM
  TGI: 40.2 µM
M14 melanoma
  GI50: 5.67 µM
  TGI: 21.9 µM
HCC-2998 colon
  GI50: 2510 nM
  TGI: 7.05 µM
SK-MEL-2 melanoma
  GI50: 14 µM
  TGI: 38.6 µM
HCT-15 colon
  GI50: 2430 nM
  TGI: 11.1 µM
COLO 205 colon
  GI50: 2960 nM
  TGI: 10.5 µM
T-47D breast
  GI50: 14.2 µM
  TGI: > 100 µM
RXF 393 renal
  GI50: 2220 nM
  TGI: 7.49 µM
ACHN renal
  GI50: 3.4 µM
  TGI: 14.9 µM
HL-60(TB) leukemia
  GI50: 1310 nM
  TGI: 4.53 µM
CCRF-CEM leukemia
  GI50: 1590 nM
  TGI: 13.4 µM
MALME-3M melanoma
  GI50: 16 µM
  TGI: 49.8 µM
HOP-92 NSCLC
  GI50: 1330 nM
  TGI: 3.65 µM
IGROV1 ovarian
  GI50: 3.89 µM
  TGI: 20 µM
NCI-H226 lung
  GI50: 11 µM
  TGI: 29.8 µM
NCI/ADR-RES ovarian
  GI50: 3.58 µM
  TGI: 23.4 µM
UACC-257 melanoma
  GI50: 19 µM
  TGI: 53.9 µM
A549 NSCLC
  GI50: 7.72 µM
  TGI: 46.8 µM
BT-549 breast
  GI50: 5.45 µM
  TGI: 34.6 µM
LOX IMVI melanoma
  GI50: 2900 nM
  TGI: 14 µM
SN12C renal
  GI50: 3.56 µM
  TGI: 12.7 µM
HT29 colon
  GI50: 1670 nM
  TGI: 4.18 µM
KM12 colon
  GI50: 2320 nM
  TGI: 6.91 µM
PC-3 prostate
  GI50: 1560 nM
  TGI: 5.34 µM
SNB-19 CNS
  GI50: 26.6 µM
  TGI: > 100 µM
786-0 renal
  GI50: 2920 nM
  TGI: 12.2 µM
SF-295 CNS
  GI50: 12.1 µM
  TGI: 69 µM
